Data reported in ChEMBL document CHEMBL3430912, “GSK Tres Cantos Anti-Kinetoplastid Screening (TCAKS) Data”.

Assays:
[1] = test system: Trypanosoma brucei brucei; experiment: GSK_TCAKS: pIC50 Trypanosoma brucei viability assay using luminiscence. Assay plates (1536-well) were prepared. T. brucei cultures were harvested and counted in a CASY cell counter. A parasite suspension was prepared at a final concentration of 5 * 10^4 cells/mL in complete HMI9 medium and 6uL was dispensed to all wells containing compounds using a Multidrop Combi dispenser. 6uL of HMI9 media with 0.4% DMSO were dispensed to control columns. Plates were incubated for 24 h at 37C, 5% CO2 then tempered for 10 min at room temperature. ATP content was quantified by adding 4 uL of CellTiter-Glo Reagent (Promega) according to the manufacturer's instructions. Luminescence was measured using a ViewLux.; type: functional, organism-based; conditions: Lister 427, CASY
[2] = biological target: Sterol 14-alpha demethylase (Trypanosoma cruzi (strain CL Brener), UniProt Q7Z1V1); experiment: GSK_TCAKS: pIC50 CYP51 from Trypanosoma cruzi.; type: functional
Sequence of Sterol 14-alpha demethylase (Q7Z1V1 whole entry): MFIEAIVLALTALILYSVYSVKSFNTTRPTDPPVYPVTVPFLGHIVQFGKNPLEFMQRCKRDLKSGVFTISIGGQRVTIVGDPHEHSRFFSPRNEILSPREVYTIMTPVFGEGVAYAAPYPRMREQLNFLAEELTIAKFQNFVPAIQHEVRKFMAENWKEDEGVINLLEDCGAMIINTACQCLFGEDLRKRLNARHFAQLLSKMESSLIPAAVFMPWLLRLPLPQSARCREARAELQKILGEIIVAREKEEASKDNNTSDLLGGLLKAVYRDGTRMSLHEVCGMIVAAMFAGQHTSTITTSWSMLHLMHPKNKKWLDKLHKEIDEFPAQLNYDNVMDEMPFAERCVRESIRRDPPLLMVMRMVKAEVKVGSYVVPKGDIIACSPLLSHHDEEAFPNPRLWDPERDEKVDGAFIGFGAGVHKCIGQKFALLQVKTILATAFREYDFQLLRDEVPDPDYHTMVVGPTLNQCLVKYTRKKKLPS

[3] = test system: Leishmania donovani; experiment: GSK_TCAKS: pIC50 Leishmania donovani viability assay using fluorescence intensity. Assay plates (1536-well) were prepared by adding 30nL per well of compound. For single shot assay, the final compound concentration was 5uM. […] Briefly, eGFP LdBOB axenic amastigotes were harvested, fixed and counted in a CASY cell counter (Roche-Applied Science). A final concentration of 1.5 * 10^5 cells per well were prepared in amastigote media containing 500 U/mL penicillin/streptomycin (Invitrogen) and 6uL was dispensed to each experimental well using a Multidrop Combi dispenser (Thermo Scientific). 6uL of assay media was dispensed to control columns used as reference for 100% compound response. Following incubation for 72 h at 37C, 5% CO2, 2 uL of resazurin was added to each well at a final concentration of 0.5 mM in phosphate buffered saline (PBS) with IGEPAL (Sigma-Aldrich), 0.05% (v/v).; type: functional, organism-based
[4] = GSK_TCAKS: pIC50 HepG2 human cell line viability assay using luminiscence. […] Seeding density was checked to ensure that new mono-layers were not more than 50% confluent at the time of harvesting. Cell suspension was added to 500 mL of the same medium at a final density of 1.2 * 10^5 cells/mL. This cell suspension was dispensed (25 uL, 3000 cells per well) into 384-well clear-bottom plates using a Multidrop Combi dispenser. Prior to addition of the cell suspension, the screening compounds (250 nL) were pre-dispensed into the plates with an Echo liquid handler. Plates were incubated for 48 h at 37C, 5% CO2. After incubation, plates equilibrated at room temperature for 30 min before proceeding to develop the luminescent signal. The signal developer, CellTiter-Glo Reagent, was allowed to equilibrate at room temperature for 30 min and added to the plates (25uL per well) using a Multidrop Combi dispenser. Plates were left for 10 min at room temperature for stabilization and then read using a ViewLux.; type: toxicity, cell-based
[5] = test system: Trypanosoma cruzi; experiment: (§1) GSK_TCAKS: pIC50 H2C9 Imaging: H9c2 Host Cardiomyocytes. […] Cells were then washed once with PBS before infection. T. cruzi trypomastigotes, collected at days 5 to 8 after infection from LLC-MK2 parasite infected cultures, were allowed to swim out for 4h at 37C from a centrifuged pellet (2,500 rpm/10 min/room temperature). Trypomastigotes were then collected and counted in a CASY Cell Counter. Trypomastigotes, in supplemented DMEM, were added to H9c2 cultures in a multiplicity of infection of 1 and incubated for 18 h. Cells were washed once with PBS before incubation of the infected H9c2 monolayer with trypsin (Life-Technologies) to detach cells from the flask. Cells were counted in a CASY Cell Counter using a 150 um capillary and their density set at 5 * 10^4 cells per mL in supplemented assay DMEM. Infected H9c2 were dispensed into 384-well poly-lysine coated assay plates at 50uL per well using a Multidrop Combi dispenser. After seeding them, the plates were incubated at 37C, 5% CO2 for 72h. Cultures were then fixed and stained by addition of 50 uL of a solution containing 8% formaldehyde and 4 uM DRAQ5 DNA dye (BioStatus, UK) per well. […] Five images were collected per well for reliable statistical analysis. Automated image analysis was performed with a script developed on Acapella High Content Imaging and Analysis Software (PerkinElmer). Output: Number of H9c2 Host Cardiomyocytes nuclei to determine drug-related cytotoxicity.; type: functional, organism-based, Rattus norvegicus; conditions: H9c2, 4 h
[6] = test system: Trypanosoma cruzi; experiment: as §1, with “Trypanosoma cruzi” for “H2C9”, “Infected Cells.” for “H9c2 Host Cardiomyocytes.”, “percentage” for “Number”, “infected cells per well as a second infection marker.” for “H9c2 Host Cardiomyocytes nuclei to determine drug-related cytotoxicity.”; type: functional, organism-based, Rattus norvegicus; conditions: H9c2, 4 h
[7] = test system: Trypanosoma cruzi; experiment: GSK_TCAKS: pIC50 Trypanosoma cruzi viability assay using beta-GAL activity. This assay was run at single shot at 5uM compound concentration per well. The biological reagents consisted of NIH-3T3 host cells and trypomastigotes parasitic cells; both cell types were set to a 3.3 * 10^5 cells/mL dilution in assay DMEM by means of a CASY cell counter device using a 60um capillary. 6 uL of the mixture were dispensed per well (about 1 * 10^3 host-cells and 1 * 10^3 parasites) with a Multidrop Combi dispenser. […] In all wells, the percentage of DMSO never exceeded 0.5%. Plates incubated for four days at 37C, 5% CO2. The substrate used for the assay fluorescence intensity (FLINT) readout was resorufin-beta-D-galactopiranoside (Sigma-Aldrich) at 5uM per well. It was diluted in PBS supplemented with the soft detergent Igepal (Fluka).; type: functional, organism-based, Mus musculus; conditions: Tulahuen, NIH3T3
[8] = test system: Leishmania donovani; experiment: (§2) GSK_TCAKS: pIC50 Leishmania donovani Imaging: Amastigotes/Macrophages. Assay plates (384-well) were prepared by adding 250nL of compound to each well. For single shot assay, the final compound concentration was 5 uM. […] Automated image analysis was performed with a script developed on Acapella High Content Imaging and Analysis Software (PerkinElmer). Output: Average number of amastigotes per macrophage cell were reported for each well.; type: functional, organism-based, Homo sapiens; conditions: THP-1
[9] = test system: Leishmania donovani; experiment: as §2, with “THP-1 Host Macrophages.” for “Amastigotes/Macrophages.”, “THP-1” for “Average number of amastigotes per macrophage”, “cell count” for “cell”; type: functional, organism-based, Homo sapiens
[10] = test system: Trypanosoma cruzi; experiment: as §1, with “Trypanosoma cruzi” for “H2C9”, “Amastigotes/Cell.” for “H9c2 Host Cardiomyocytes.”, “number” for “Number”, “amastigotes per cell as infection level measurement.” for “H9c2 Host Cardiomyocytes nuclei to determine drug-related cytotoxicity.”; type: functional, organism-based, Rattus norvegicus; conditions: H9c2, 4 h
[11] = test system: Trypanosoma brucei brucei; experiment: GSK_TCAKS: pIC50 Trypanosoma brucei viability assay using fluorescence intensity. Assay plates (1536-well) were prepared by dispensing 25nL of compound solution per well using an Echo acoustic dispenser (Labcyte).; type: functional, organism-based; conditions: Lister 427, 2 h
[12] = test system: Leishmania donovani; experiment: as §2, with “Infected Macrophages.” for “Amastigotes/Macrophages.”, “Percent” for “Average number”, “infected” for “amastigotes per”, “cells” for “cell”; type: functional, organism-based, Homo sapiens; conditions: THP-1
[13] = test system: NIH3T3; experiment: GSK_TCAKS: pIC50 NIH 3T3 cell line viability assay using luminiscence. Tissue culture surface treated assay plates (1536-well) were used. […] The 100% cells survival control was determined exposing the host-cells to a 0.5% DMSO concentration, whereas the 100% toxicity control was achieved by seeding the cells in presence of Amphotericin B at 50uM. Plates were incubated for four days at 37C, 5% CO2. The assay readout was developed by addition of 5uL of CellTiter-Glo Reagent following the manufacturer's instructions. Luminiscence was measured using a ViewLux.; type: functional, cell-based; conditions: Mus musculus, NIH3T3, 96 h

| Structure (SMILES) | IC50 [1] [µM] | IC50 [2] [µM] | IC50 [3] [µM] | IC50 at 48 h [4] [µM] | IC50 [5] [µM] | IC50 [6] [µM] | IC50 [7] [µM] | IC50 [8] [µM] | IC50 [9] [µM] | IC50 [10] [µM] | IC50 [11] [µM] | IC50 [12] [µM] | IC50 [13] [µM] |
| --- | --- | --- | --- | --- | --- | --- | --- | --- | --- | --- | --- | --- | --- |
| Cc1ccc2nc(N(Cc3cccnc3)C(=O)CCc3ccccc3)sc2c1 | 20 | 0.0631 | 25.1 | > 100 | > 50.1 | 0.0398 | 0.0398 | > 50.1 | > 50.1 | 0.0316 | 12.6 | > 50.1 | 15.8 |
| O=C(COc1ncnc2cc([N+](=O)[O-])ccc12)NC(=O)NC1CCCCC1 | > 39.8 | > 100 | > 50.1 | > 100 | > 50.1 | 1 | 1.26 | > 50.1 | > 50.1 | 0.501 | 6.31 | > 50.1 | > 50.1 |
| CCCN1CCN(Cc2ccc(S(=O)(=O)Nc3cccc(C)c3)cc2)CC1 | > 39.8 | > 100 | 25.1 | > 100 | > 50.1 | 0.794 | 0.794 | > 50.1 | > 50.1 | 0.631 | 25.1 | > 50.1 | 25.1 |
| O=C(CSc1ccc(-c2ccccn2)nn1)Nc1ccc(Cl)cc1 | > 39.8 | > 100 | > 50.1 | > 100 | > 50.1 | 2.51 | 2.51 | > 50.1 | > 50.1 | 2 | 10 | > 50.1 | 31.6 |
| O=C(Nc1cccc(F)c1)N1CCC(Oc2cccc(-c3cccnc3)c2)CC1 | > 39.8 | 0.158 | 0.501 | > 100 | 25.1 | 0.631 | 0.631 | 0.794 | 20 | 0.501 | 25.1 | > 50.1 | 39.8 |
| O=[N+]([O-])c1cccc(Nc2cncc(-c3ccccc3CO)c2)c1 | > 39.8 | 3.16 | 39.8 | > 100 | > 50.1 | 0.398 | 0.316 | > 50.1 | > 50.1 | 0.251 | > 39.8 | > 50.1 | 39.8 |
| O=C(NC(c1ccc(Cl)cc1)c1cnccn1)C1CCN(C(=O)Nc2cccc(C(F)(F)F)c2)CC1 (stereo not drawn) | 6.31 | 0.126 | 20 | > 100 | > 50.1 | 0.631 | 0.631 | > 50.1 | 39.8 | 0.501 | 12.6 | > 50.1 | 39.8 |
| c1ccc2c(CCOc3nccnc3-c3ccncc3)c[nH]c2c1 | 39.8 | 0.0631 | 5.01 | > 100 | > 50.1 | 0.158 | 0.141 | 20 | 20 | 0.158 | 31.6 | > 50.1 | 20 |
| O=C(Nc1ccc(Br)c(Cl)c1)Nc1ccc2c(c1)OCO2 | 12.6 | > 100 | > 50.1 | > 100 | > 50.1 | 5.01 | 2.51 | > 50.1 | > 50.1 | 2 | 7.94 | > 50.1 | 15.8 |
| Clc1cc(Br)ccc1OCCCCn1ccnc1 | 20 | 0.0631 | 0.126 | 50.1 | 25.1 | 0.251 | 0.631 | 6.31 | 31.6 | 0.316 | 10 | 25.1 | 15.8 |
| COc1cccc(C(=O)[C@H]2C[C@@H]2CN(Cc2cccnc2)Cc2cccnc2)c1 | > 39.8 | 0.0631 | 0.158 | > 100 | > 50.1 | 0.0631 | 0.1 | 7.94 | 39.8 | 0.0501 | 31.6 | > 50.1 | 20 |
| NC(=O)c1ccc(-c2cccc(OCCN3CCN(C4CCCCC4)CC3)c2)cc1 | 15.8 | 39.8 | > 50.1 | 50.1 | > 50.1 | 1.58 | 1.58 | 10 | 31.6 | 0.794 | 15.8 | 50.1 | 15.8 |
| CCCC(=O)N(Cc1ccccn1)c1nc2ccccc2s1 | > 39.8 | 0.0501 | 7.94 | > 100 | > 50.1 | 0.1 | 0.126 | 10 | > 50.1 | 0.0794 | 20 | > 50.1 | > 50.1 |
| O=[N+]([O-])c1ccc(C2=NCCNC(c3ccccc3)=C2)cc1.[O-][Cl+3]([O-])([O-])O | > 12.6 | 50.1 | > 50.1 | 50.1 | 31.6 | 1 | 0.501 | 7.94 | 39.8 | 0.251 | 6.31 | 20 | 7.94 |
| Clc1ccc(Sc2cnccc2N2CCOCC2)cc1 | > 39.8 | 0.0316 | 7.94 | > 100 | > 50.1 | 0.126 | 0.141 | 10 | > 50.1 | 0.1 | 25.1 | > 50.1 | > 50.1 |
| N#Cc1cc(N2CCCC2=O)ccc1Sc1ccccc1CO | 31.6 | 20 | > 50.1 | > 100 | > 50.1 | 0.398 | 0.251 | > 50.1 | > 50.1 | 0.251 | 39.8 | > 50.1 | > 50.1 |
